Experimental data as given in ChEMBL document CHEMBL5244216, “Pyrrole: An insight into recent pharmacological advances with structure activity relationship” (Eur J Med Chem, 2018).

What follows are molecules tested on Mycobacterium tuberculosis (assay: Antitubercular activity against Multidrug-resistant Mycobacterium tuberculosis H37Rv assessed as reduction in microbial growth by broth dilution method).
Format: functional

SMILES | MIC [µg/mL]
CCOc1cc(C2OC(c3ccc(-n4cccc4)cc3)=NN2C(C)=O)ccc1O (stereo not given) | 0.2
Cc1ccc(C)n1-c1ccc(C(=O)n2[nH]c(=O)c3ccccc3c2=O)cc1 | 0.4
CC[C@@H](CO)NCCN[C@@H](CC)CO [ETHAMBUTOL] | 12.5
NNC(=O)c1ccncc1 [ISONIAZID] | 12.5
CO[C@H]1/C=C/O[C@@]2(C)Oc3c(C)c(O)c4c(O)c(c(/C=N/N5CCN(C)CC5)c(O)c4c3C2=O)NC(=O)/C(C)=C\C=C\[C@H](C)[C@H](O)[C@@H](C)[C@@H](O)[C@@H](C)[C@H](OC(C)=O)[C@@H]1C [RIFAMPIN] | 25
